According to US5587392A, “Azolyl methyl phenyl derivatives having aromatase inhibitory activity” (Mochida Pharmaceutical Co., Ltd., priority 1994, dated 1996):
Like-named read-outs stand apart in the source and are kept apart here.

Legend:
[1] = related art; cited from earlier work
aromatase from rat ovary = biological target: T1, aromatase from rat ovary (Rattus norvegicus, UniProt P22443); experiment: Inhibitory activity on aromatase from rat ovary; format: biochemical
T1 construct: Using as an enzyme sample the ovarian microsome fraction from a female rat; from tissue; host or cells: rat ovary, microsome fraction (female rat)
T1 sequence (P22443 1-508): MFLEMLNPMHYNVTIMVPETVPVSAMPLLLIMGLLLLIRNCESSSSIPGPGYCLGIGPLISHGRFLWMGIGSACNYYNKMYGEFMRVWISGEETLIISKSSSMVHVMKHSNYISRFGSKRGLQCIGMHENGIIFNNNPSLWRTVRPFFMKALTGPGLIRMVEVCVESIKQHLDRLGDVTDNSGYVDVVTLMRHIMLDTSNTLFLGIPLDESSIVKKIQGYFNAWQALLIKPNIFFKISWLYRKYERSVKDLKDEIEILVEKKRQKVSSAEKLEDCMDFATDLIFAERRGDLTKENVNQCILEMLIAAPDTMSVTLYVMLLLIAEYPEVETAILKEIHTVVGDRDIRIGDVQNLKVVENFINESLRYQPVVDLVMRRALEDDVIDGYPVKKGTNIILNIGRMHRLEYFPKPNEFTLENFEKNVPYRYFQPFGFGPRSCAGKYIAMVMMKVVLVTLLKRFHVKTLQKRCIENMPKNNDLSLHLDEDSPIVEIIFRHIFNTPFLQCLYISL

plasma estradiol = experiment: Decreasing activity on blood estrogen (plasma estradiol, PMSG-treated rats); format: in vivo, female SD rats; conditions: Rattus norvegicus, po, 4 hours after dosing, read-out: Ratio in plasma estradiol decrease; for inhibition in vivo at 0.1 mg/kg: 0.1 mg/kg orally; for inhibition in vivo at 0.01 mg/kg: 0.01 mg/kg orally
Experimental: More specifically, pregnant mare serum gonadotropin (PMSG) was subcutaneously administered to female SD rats aged 3 weeks, at a dose of 200 IU/rat. […] Four hours after the dosing of the test compound, blood was sampled, and plasma estradiol was messuered by radioimmunoassay(RIA). The decreasing ratio (%) in plasma estradiol levels was calculated by comparing with control groups.

[2] = test system: steroid hormone level in blood; experiment: Effects on the synthesis of various steroid hormones, compared with the dose lowering blood estrogen; format: in vivo, rats; conditions: 10 mg/kg
progesterone = experiment: Effect on plasma levels of progesterone; format: in vivo, male SD rats; conditions: even at the highest doses (10 mg/kg; CGS 16949A 1 mg/kg)
testosterone = experiment: Effect on plasma levels of testosterone; format: in vivo, male SD rats; conditions: even at the highest doses (10 mg/kg; CGS 16949A 1 mg/kg)
corticosterone = experiment: Effect on plasma levels of corticosterone; format: in vivo, male SD rats; conditions: even at the highest doses (10 mg/kg; CGS 16949A 1 mg/kg)
aromatase = conditions: related art; cited from earlier work
[3] = test system: estrogen-dependent diseases; conditions: related art; cited from earlier work
[4] = rat ovarian microsomes, 30 nM [1β-3H] androstenedione, pH 7.4, 37° C., 15 minutes, read-out: IC50 value

In the case of C[C@]12CCC(=O)C(O)=C1CC[C@@H]1[C@@H]2CC[C@]2(C)C(=O)CC[C@@H]12 [4-hydroxyandrostenedione], the “absorption when administered orally” value [1] is listed as “poorly absorbed when administered orally”.

In the case of Clc1ccc(Oc2cccc3ccccc23)c(Cn2ccnc2)c1 [Example 5, 1-[5-chloro-2-(1-naphthyloxy)benzyl]-1H-imidazole], the IC50 (aromatase from rat ovary; [4]) is reported as 6 nM.

Clc1ccc(Oc2ccc3ccccc3c2)c(Cn2ccnc2)c1 [Example 6, 1-[5-Chloro-2-(2-naphthyloxy)benzyl]-1H-imidazole] showed an IC50 (aromatase from rat ovary; [4]) of 9.9 nM.

For Cn1nnc2ccc(Oc3ccc(Cl)cc3Cn3ccnc3)cc21 [Example 38, 6-[4-chloro-2-(1H-imidazol-1-ylmethyl)phenoxy]-1-methyl-1H-benzotriazole], the inhibition in vivo at 0.1 mg/kg (plasma estradiol) was 44% and the IC50 (aromatase from rat ovary; [4]) was 0.4 nM.

Clc1ccc(Oc2ccc3[nH]nnc3c2)c(Cn2cncn2)c1 [Example 40, 5-[4-chloro-2-(1H-1,2,4-triazol-1-ylmethyl)phenoxy]-1H-benzotriazole] gave an IC50 (aromatase from rat ovary; [4]) of 0.6 nM.

With Cn1nnc2ccc(Oc3ccc(Cl)cc3Cn3cncn3)cc21 [Example 41, 6-[4-chloro-2-(1H-1,2,4-triazol-1-ylmethyl)phenoxy]-1-methyl-1H-benzotriazole] the “effect on any steroid hormone level in blood” value [2] was “Neither the compound of Example 41 nor the compound of Example 52 in accordance with the present invention had any effect”, the “effect on plasma levels of progesterone” value (progesterone) was “neither the compound of Example 41 nor the compound of Example 52 in accordance with the present invention had any effect” and the inhibition in vivo at 0.01 mg/kg (plasma estradiol) was 46%. For the same molecule, the inhibition in vivo at 0.1 mg/kg (plasma estradiol) was 70%, the “effect on plasma levels of testosterone” value (testosterone) was “neither the compound of Example 41 nor the compound of Example 52 in accordance with the present invention had any effect” and the “effect on plasma levels of corticosterone” value (corticosterone) was “neither the compound of Example 41 nor the compound of Example 52 in accordance with the present invention had any effect”. The IC50 (aromatase from rat ovary; [4]) was 0.5 nM.

For Cn1nnc2ccc(Oc3ccc(Br)cc3Cn3cncn3)cc21 [Example 43, 6-[4-bromo-2-(1H-1,2,4-triazol-1-ylmethyl)phenoxy]-1-methyl-1H-benzotriazole], the inhibition in vivo at 0.01 mg/kg (plasma estradiol) was 41%, the inhibition in vivo at 0.1 mg/kg (plasma estradiol) was 69% and the IC50 (aromatase from rat ovary; [4]) was 0.3 nM.

Molecule Cn1nnc2ccc(Oc3ccccc3Cn3cncn3)cc21 [Example 44, 1-methyl-6-[2-(1H-1,2,4-triazol-1-ylmethyl)phenoxy]-1H-benzotriazole] has an inhibition in vivo at 0.1 mg/kg (plasma estradiol) of 23% and an IC50 (aromatase from rat ovary; [4]) of 7.8 nM.

Work on Cn1nnc2ccc(Oc3ccc(F)cc3Cn3cncn3)cc21 [Example 45, 6-[4-Fluoro-2-(1H-1,2,4-triazol-1-ylmethyl)phenoxy]-1-methyl-1H-benzotriazole] yielded an IC50 (aromatase from rat ovary; [4]) of 3.3 nM.

Work on Cn1nnc2ccc(Oc3ccc(I)cc3Cn3cncn3)cc21 [Example 46, 6-[4-Iodo-2-(1H-1,2,4-triazol-1-ylmethyl)phenoxy]-1-methyl-1H-benzotriazole] yielded an inhibition in vivo at 0.01 mg/kg (plasma estradiol) of 36% and an IC50 (aromatase from rat ovary; [4]) of 0.4 nM.

Molecule COc1ccc(Oc2ccc3nnn(C)c3c2)c(Cn2cncn2)c1 [Example 47, 6-[4-Methoxy-2-(1H-1,2,4-triazol-1-ylmethyl)phenoxy]-1-methyl-1H-benzotriazole] has an IC50 (aromatase from rat ovary; [4]) of 1.6 nM.

Work on Cn1nnc2ccc(Oc3ccc(OC(F)(F)F)cc3Cn3cncn3)cc21 [Example 48, 1-Methyl-6-[4-(trifluoromethoxy)-2-(1H-1,2,4-triazol-1-ylmethyl)phenoxy]-1H-benzotriazole] yielded an inhibition in vivo at 0.01 mg/kg (plasma estradiol) of 30% and an IC50 (aromatase from rat ovary) of 0.9 nM.

For Cn1nnc2ccc(Oc3cc(Cl)ccc3Cn3cncn3)cc21 [Example 49, 6-[5-Chloro-2-(1H-1,2,4-triazol-1-ylmethyl)phenoxy]-1-methyl-1H-benzotriazole], the IC50 (aromatase from rat ovary; [4]) was 1.5 nM.

Cn1nnc2ccc(Oc3ccc([N+](=O)[O-])cc3Cn3cncn3)cc21 [Example 50, 1-methyl-6-[4-nitro-2-(1H-1,2,4-triazol-1-ylmethyl)phenoxy]-1H-benzotriazole] gave an inhibition in vivo at 0.01 mg/kg (plasma estradiol) of 59% and an IC50 (aromatase from rat ovary; [4]) of 0.5 nM.

CC(=O)c1ccc(Oc2ccc3nnn(C)c3c2)c(Cn2cncn2)c1 [Example 51, 4-[6-(1-methyl-1H-benzotriazoyloxy)]-3-(1H-1,2,4-triazol-1-ylmethyl)acetophenone] gave an IC50 (aromatase from rat ovary; [4]) of 1.2 nM.

For Cn1nnc2ccc(Oc3ccc(C#N)cc3Cn3cncn3)cc21 [Example 52, 4-[6-(1-methyl-1H-benzotriazoyloxy)]-3-(1H-1,2,4-triazol-1-ylmethyl)benzonitrile], the “effect on any steroid hormone level in blood” value [2] was “Neither the compound of Example 41 nor the compound of Example 52 in accordance with the present invention had any effect”, the “effect on plasma levels of progesterone” value (progesterone) was “neither the compound of Example 41 nor the compound of Example 52 in accordance with the present invention had any effect” and the inhibition in vivo at 0.001 mg/kg (plasma estradiol; 0.001 mg/kg orally) was 22%. For the same molecule, the inhibition in vivo at 0.01 mg/kg (plasma estradiol) was 77%, the inhibition in vivo at 0.1 mg/kg (plasma estradiol) was 91% and the “effect on plasma levels of testosterone” value (testosterone) was “neither the compound of Example 41 nor the compound of Example 52 in accordance with the present invention had any effect”. The “effect on plasma levels of corticosterone” value (corticosterone) was “neither the compound of Example 41 nor the compound of Example 52 in accordance with the present invention had any effect” and the IC50 (aromatase from rat ovary; [4]) was 0.4 nM.

With Cn1nnc2ccc(Oc3ccc(C=O)cc3Cn3cncn3)cc21 [Example 53, 4-[6-(1-methyl-1H-benzotriazoyloxy)]-3-(1H-1,2,4-triazol-1-ylmethyl)benzaldehyde] the IC50 (aromatase from rat ovary; [4]) was 0.8 nM.

Work on CCOC(=O)c1ccc(Oc2ccc3nnn(C)c3c2)c(Cn2cncn2)c1 [Example 55, 4-[6-(1-methyl-1H-benzotriazoyloxy) ]-3-(1H-1,2,4-triazol-1-ylmethyl)benzoic acid ethyl ester] yielded an IC50 (aromatase from rat ovary; [4]) of 1.4 nM.

For C=Cc1ccc(Oc2ccc3nnn(C)c3c2)c(Cn2cncn2)c1 [Example 56], the IC50 (aromatase from rat ovary; [4]) was 0.3 nM.

With C#Cc1ccc(Oc2ccc3nnn(C)c3c2)c(Cn2cncn2)c1 [Example 58, 6-[4-ethynyl-2-(1H-1,2,4-triazol-1-ylmethyl)phenoxy]-1-methyl-1H-benzotriazole] the IC50 (aromatase from rat ovary; [4]) was 0.3 nM.

For Cn1nnc2ccc(Oc3ccc(C(F)(F)F)cc3Cn3cncn3)cc21 [Example 64, 6-[2-(1H-1,2,4-triazol-1-ylmethyl)-4-(trifluoromethyl)phenoxy]-1-methyl-1H-benzotriazole], the IC50 (aromatase from rat ovary; [4]) was 0.6 nM.

With CCn1nnc2ccc(Oc3ccc(Cl)cc3Cn3cncn3)cc21 [Example 67, 6-[4-chloro-2-(1H-1,2,4-triazol-1-ylmethyl)phenoxy]-1-ethyl-1H-benzotriazole] the IC50 (aromatase from rat ovary; [4]) was 0.6 nM.

For Cn1cnc2ccc(Oc3ccc(Cl)cc3Cn3cncn3)cc21 [Example 68, 6-[4-chloro-2-(1H-1,2,4-triazol-1-ylmethyl)phenoxy]-1-methylbenzimidazole], the IC50 (aromatase from rat ovary; [4]) was 2.6 nM.

Work on Cn1nnc2ccc(Sc3ccc(Cl)cc3Cn3cncn3)cc21 [Example 71, 6-[4-chloro-2-(1H-1,2,4-triazol-1-ylmethyl)phenylthio]-1-methyl-1H-benzotriazole] yielded an IC50 (aromatase from rat ovary; [4]) of 1.2 nM.

Cn1nnc2ccc(Cc3ccc(Cl)cc3Cn3cncn3)cc21 [Example 79, 6-[4-chloro-2-(1H-1,2,4-triazol-1-ylmethyl)benzyl]-1-methyl-1H-benzotriazole] gave an IC50 (aromatase from rat ovary; [4]) of 0.7 nM.

Work on Cn1nnc2ccc(Cc3ccc(C#N)cc3Cn3cncn3)cc21 [Example 80, 4-[(1-methyl-1H-benzotriazole-6-yl)methyl]-3-(1H-1,2,4-triazol-1-ylmethyl)benzonitrile] yielded an inhibition in vivo at 0.1 mg/kg (plasma estradiol) of 49% and an IC50 (aromatase from rat ovary; [4]) of 1.9 nM.

In the case of Clc1ccccc1C(c1ccccc1)(c1ccccc1)n1ccnc1 [clotrimazole], the aromatase inhibitory action (aromatase) is listed as “have aromatase inhibitory activities as well”.

In the case of CC(=O)N1CCN(c2ccc(OCC3COC(Cn4ccnc4)(c4ccc(Cl)cc4Cl)O3)cc2)CC1 (centres unmarked) [ketoconazole], the aromatase inhibitory action (aromatase) is listed as “have aromatase inhibitory activities as well”.

For Clc1ccc(COC(Cn2ccnc2)c2ccc(Cl)cc2Cl)c(Cl)c1 (centres unmarked) [miconazole], the aromatase inhibitory action (aromatase) is listed as “have aromatase inhibitory activities as well”.

In the case of CC/C(=C(\c1ccccc1)c1ccc(OCCN(C)C)cc1)c1ccccc1 [tamoxifen], the therapeutical efficacy [3] is given as “clinically satisfactory effect cannot be brought about from such administration alone”.

For C[C@]12C=CC(=O)C=C1CC[C@@H]1[C@@H]2CC[C@]2(C)OC(=O)CC[C@@H]12 [testolactone], the “absorption when administered orally” value [1] is given as “poorly absorbed when administered orally” and the therapeutical efficacy [3] is given as “never exerts sufficient therapeutical efficacy”.
